Columns and labels:
human CYP11B2 = target: T1, human CYP11B2 (Homo sapiens, UniProt P19099); test: G-402 cellular enzyme assay, human CYP11B2 (aldosterone release, HTRF); assay type: cell-based; details: G-402 cells, 1 μM Deoxycorticosterone
T1 construct: expressed in transfected cells
T1 sequence (P19099 25-503): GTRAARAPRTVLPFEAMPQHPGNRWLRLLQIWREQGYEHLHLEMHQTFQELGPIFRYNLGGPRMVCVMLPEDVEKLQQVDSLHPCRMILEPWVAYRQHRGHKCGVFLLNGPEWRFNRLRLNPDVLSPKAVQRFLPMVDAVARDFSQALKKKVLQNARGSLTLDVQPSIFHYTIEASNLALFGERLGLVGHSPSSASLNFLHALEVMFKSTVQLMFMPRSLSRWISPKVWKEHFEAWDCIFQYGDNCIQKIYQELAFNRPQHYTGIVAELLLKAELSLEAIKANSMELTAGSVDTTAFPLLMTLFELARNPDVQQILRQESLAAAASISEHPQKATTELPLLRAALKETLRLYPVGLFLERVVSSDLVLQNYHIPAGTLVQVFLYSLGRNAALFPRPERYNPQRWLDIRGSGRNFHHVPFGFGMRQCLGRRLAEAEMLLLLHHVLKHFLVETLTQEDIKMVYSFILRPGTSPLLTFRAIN
Summary of the method: (§1)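 Inhibition of steroid release was taken as enzyme inhibition. CYP11B1 assays used 1 μM deoxycortisol with cortisol detection, CYP11B2 assays 1 μM deoxycorticosterone with aldosterone detection, both by HTRF after 16 h in stable G-402 cells; EC50 from least-squares MMF fit.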

human CYP11B1 = target: T2, human CYP11B1 (Homo sapiens, UniProt P15538); test: G-402 cellular enzyme assay, human CYP11B1 (cortisol release, HTRF); assay type: cell-based; details: G-402 cells, 1 μM Deoxycortisol
T2 construct: expressed in transfected cells
T2 sequence (P15538 25-503): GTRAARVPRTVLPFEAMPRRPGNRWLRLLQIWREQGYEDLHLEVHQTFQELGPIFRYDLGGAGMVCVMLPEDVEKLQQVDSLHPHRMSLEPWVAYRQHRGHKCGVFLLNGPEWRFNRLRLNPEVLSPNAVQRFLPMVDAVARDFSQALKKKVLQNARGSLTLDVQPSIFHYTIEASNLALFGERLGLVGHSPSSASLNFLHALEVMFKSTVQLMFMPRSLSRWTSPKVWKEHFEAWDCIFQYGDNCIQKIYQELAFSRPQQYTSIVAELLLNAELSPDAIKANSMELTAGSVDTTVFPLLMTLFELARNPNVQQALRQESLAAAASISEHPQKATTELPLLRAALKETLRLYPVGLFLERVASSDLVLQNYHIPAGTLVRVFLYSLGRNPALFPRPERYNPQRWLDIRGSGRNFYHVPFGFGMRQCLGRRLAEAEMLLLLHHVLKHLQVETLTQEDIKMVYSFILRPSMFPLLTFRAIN
Summary of the method: as §1

SMILES	EC50 (human CYP11B2) [nM]	EC50 (human CYP11B1) [nM]
CN1CCN(Cc2cncc(N3CCc4cc(Cl)ccc4C3=O)c2)C1=O [Example 159, 6-Chloro-2-[5-(3-methyl-2-oxo-imidazolidin-1-ylmethyl)-pyridin-3-yl]-3,4-dihydro-2H-isoquinolin-1-one]	209	4460
O=C1c2ccc(Cl)cc2CCN1c1cncc(Cn2cccn2)c1 [Example 160, 6-Chloro-2-(5-pyrazol-1-ylmethyl-pyridin-3-yl)-3,4-dihydro-2H-isoquinolin-1-one]	36.1	418
CCCc1nccn1Cc1cncc(N2CCc3cc(Cl)ccc3C2=O)c1 [Example 161, 6-Chloro-2-[5-(2-propyl-imidazol-1-ylmethyl)-pyridin-3-yl]-3,4-dihydro-2H-isoquinolin-1-one]	101	341
CCOC(=O)c1nccn1Cc1cncc(N2CCc3cc(Cl)ccc3C2=O)c1 [Example 162, 1-[5-(6-Chloro-1-oxo-3,4-dihydro-1H-isoquinolin-2-yl)-pyridin-3-ylmethyl]-1H-imidazole-2-carboxylic acid ethyl ester]	187	2000
O=C1c2ccc(Cl)cc2CCN1c1cncc(Cn2ccnc2CO)c1 [Example 163, 6-Chloro-2-[5-(2-hydroxymethyl-imidazol-1-ylmethyl)-pyridin-3-yl]-3,4-dihydro-2H-isoquinolin-1-one]	215	3360
O=C1c2ccc(Cl)cc2CCN1c1cncc(CNC2COC2)c1 [Example 164, 6-Chloro-2-[5-(oxetan-3-ylaminomethyl)-pyridin-3-yl]-3,4-dihydro-2H-isoquinolin-1-one]	141	862
CN1CCN(Cc2cncc(N3CCc4cc(Cl)ccc4C3=O)c2)CC1 [Example 167, 6-Chloro-2-[5-(4-methyl-piperazin-1-ylmethyl)-pyridin-3-yl]-3,4-dihydro-2H-isuquinolin-1-one]	47.9	168
O=C1CCCCN1Cc1cncc(N2CCc3cc(Cl)ccc3C2=O)c1 [Example 173, 6-Chloro-2-[5-(2-oxo-piperidin-1-ylmethyl)-pyridin-3-yl]-3,4-dihydro-2H-isoquinolin-1-one]	334	12300
O=C1c2ccc(Cl)cc2CCN1c1cncc(Cn2ccnn2)c1 [Example 175, 6-Chloro-2-(5-[1,2,3]triazol-1-ylmethyl-pyridin-3-yl)-3,4-dihydro-2H-isoquinolin-1-one]	105	656
Cc1nncn1Cc1cncc(N2CCc3cc(Cl)ccc3C2=O)c1 [Example 177, 6-Chloro-2-[5-(3-methyl-[1,2,4]triazol-4-ylmethyl)-pyridin-3-yl]-3,4-dihydro-2H-isoquinolin-1-one]	412	6310
O=C1c2ccc(Cl)cc2CCN1c1cncc(Cn2cnnc2)c1 [Example 179, 6-Chloro-2-(5-[1,2,4]triazol-4-ylmethyl-pyridin-3-yl)-3,4-dihydro-2H-isoquinolin-1-one]	620	7720
O=C1c2ccc(Cl)cc2CCN1c1cncc(Cn2cncn2)c1 [Example 180, 6-Chloro-2-(5-[1,2,4]triazol-1-ylmethyl-pyridin-3-yl)-3,4-dihydro-2H-isoquinolin-1-one]	123	802
Cc1nc2ccccc2n1Cc1cncc(N2CCc3cc(Cl)ccc3C2=O)c1 [Example 181, 6-Chloro-2-[5-(2-methyl-benzoimidazol-1-ylmethyl)-pyridin-3-yl]-3,4-dihydro-2H-isoquinolin-1-one]	217	1970
O=C1c2ccc(Cl)cc2CCN1c1cncc(Cn2ccc3cccc(F)c32)c1 [Example 185, 6-Chloro-2-[5-(7-fluoro-indol-1-ylmethyl)-pyridin-3-yl]-3,4-dihydro-2H-isoquinolin-1-one]	66	673
Cc1cnn(Cc2cncc(N3CCc4cc(Cl)ccc4C3=O)c2)c1 [Example 187, 6-Chloro-2-[5-(4-methyl-pyrazol-1-ylmethyl)-pyridin-3-yl]-3,4-dihydro-2H-isoquinolin-1-one]	137	2230
O=C1c2ccc(Cl)cc2CCN1c1cncc(Cn2ccnc2C2CC2)c1 [Example 188, 6-Chloro-2-[5-(2-cyclopropyl-imidazol-1-ylmethyl)-pyridin-3-yl]-3,4-dihydro-2H-isoquinolin-1-one]	228	4150
O=C1c2ccc(Cl)cc2CCN1c1cncc(Cn2ccnc2C(F)(F)F)c1 [Example 189, 6-Chloro-2-[5-(2-trifluoromethyl-imidazol-1-ylmethyl)-pyridin-3-yl]-3,4-dihydro-2H-isoquinolin-1-one]	55.3	710

Stronger by EC50 (human CYP11B2), values ahead:

EC50 (human CYP11B2) [nM]	EC50 (human CYP11B1) [nM]	SMILES
29.9	385	O=C1c2ccc(Cl)cc2CCN1c1cncc(Cn2cc3ccccc3n2)c1 [Example 183, 6-Chloro-2-(5-indazol-2-ylmethyl-pyridin-3-yl)-3,4-dihydro-2H-isoquinolin-1-one]
27.5	306	O=C1c2ccc(Cl)cc2CCN1c1cncc(Cn2ncc3ccccc32)c1 [Example 182, 6-Chloro-2-(5-indazol-1-ylmethyl-pyridin-3-yl)-3,4-dihydro-2H-isoquinolin-1-one]
25.8	211	O=C1c2ccc(Cl)cc2CCN1c1cncc(Cn2nccn2)c1 [Example 174, 6-Chloro-2-(5-[1,2,3]triazol-2-ylmethyl-pyridin-3-yl)-3,4-dihydro-2H-isoquinolin-1-one]
23.2	211	O=C1c2ccc(Cl)cc2CCN1c1cncc(Cn2ccc3c(F)cccc32)c1 [Example 186, 6-Chloro-2-[5-(4-fluoro-indol-1-ylmethyl)-pyridin-3-yl]-3,4-dihydro-2H-isoquinolin-1-one]
22.3	144	O=C1c2ccc(Cl)cc2CCN1c1cncc(CN2CCCC(F)(F)C2)c1 [Example 172, 6-Chloro-2-[5-(3,3-difluoro-piperidin-1-ylmethyl)-pyridin-3-yl]-3,4-dihydro-2H-isoquinolin-1-one]
17.7	271	O=C1c2ccc(Cl)cc2CCN1c1cncc(Cn2ccc3ccc(F)cc32)c1 [Example 184, 6-Chloro-2-[5-(6-fluoro-indol-1-ylmethyl)-pyridin-3-yl]-3,4-dihydro-2H-isoquinolin-1-one]
17.2	88.9	O=C1c2ccc(Cl)cc2CCN1c1cncc(CN2CC3(COC3)C2)c1 [Example 171, 6-Chloro-2-[5-(2-oxa-6-aza-spiro[3.3]hept-6-ylmethyl)-pyridin-3-yl]-3,4-dihydro-2H-isoquinolin-1-one]
14.1	96.3	CC(C)N1CCN(Cc2cncc(N3CCc4cc(Cl)ccc4C3=O)c2)CC1 [Example 166, 6-Chloro-2-[5-(4-isopropyl-piperazin-1-ylmethyl)-pyridin-3-yl]-3,4-dihydro-2H-isoquinolin-1-one]
9.8	57.8	O=C1c2ccc(Cl)cc2CCN1c1cncc(Cn2ccnc2Cl)c1 [Example 176, 6-Chloro-2-[5-(2-chloro-imidazol-1-ylmethyl)-pyridin-3-yl]-3,4-dihydro-2H-isoquinolin-1-one]
5.2	38.1	O=C1c2ccc(Cl)cc2CCN1c1cncc(CN2CCC(F)(F)C2)c1 [Example 169, 6-Chloro-2-[5-(3,3-difluoro-pyrrolidin-1-ylmethyl)-pyridin-3-yl]-3,4-dihydro-2H-isoquinolin-1-one]
3.5	60.4	O=C1c2ccc(Cl)cc2CCN1c1cncc(CN2CCN(CCO)CC2)c1 [Example 165, 6-Chloro-2-{5-[4-(2-hydroxy-ethyl)-piperazin-1-ylmethyl]-pyridin-3-yl}-3,4-dihydro-2H-isoquinolin-1-one]
3.5	14.6	O=C1c2ccc(Cl)cc2CCN1c1cncc(CN2CCC3(COC3)C2)c1 [Example 170, 6-Chloro-2-[5-(2-oxa-6-aza-spiro[3.4]oct-6-ylmethyl)-pyridin-3-yl]-3,4-dihydro-2H-isoquinolin-1-one]
3.4	47.5	O=C1c2ccc(Cl)cc2CCN1c1cncc(CN2CCC(F)(F)CC2)c1 [Example 168, 6-Chloro-2-[5-(4,4-difluoro-piperidin-1-ylmethyl)-pyridin-3-yl]-3,4-dihydro-2H-isoquinolin-1-one]
